Data on 2 molecules can be found in ChEMBL document CHEMBL3785084, “Rational modification of the lead molecule: Enhancement in the anticancer and dihydrofolate reductase inhibitory activity” (Bioorg Med Chem Lett, 2016).

The nature of assay [1]: Cytotoxicity against human NCI-ADR-RES cells after 48 hrs by sulforhodamine B assay. The assay is classed as functional. The following applies: for CC50: read-out: LC50 (the source's name). (The SRB assay estimates cell density from bound dye.)
Assay [2] can be described thus: Cytotoxicity against human BT549 cells after 48 hrs by sulforhodamine B assay. The assay is classed as functional. The following applies: BT-549, 48 h.
The subject of another assay is SK-MEL-2. Nature of the assay: Cytotoxicity against human SK-MEL-2 cells after 48 hrs by sulforhodamine B assay. The assay is classed as functional. The following applies: SK-MEL-2, 48 h.
Assay [3] addresses Dihydrofolate reductase (Homo sapiens) (UniProt P00374).
For assay [4] the target is unchanged. The following applies: 20 to 30 uM.
Another assay concerns MDA-MB-468. Description: cells. The following applies: Homo sapiens, MDA-MB-468, 48 h; for CC50: read-out: LC50.
The subject of another assay is K562. Nature of the assay: cells. The following applies: Homo sapiens, K562, 48 h; for CC50: read-out: LC50.
A short description of the next assay: cells. The following applies: Homo sapiens, SW-620, 48 h; for CC50: read-out: LC50.
For assay [5], the system named is U-251. Nature of the assay: cells. The following applies: Homo sapiens, U-251, 48 h; for CC50: read-out: LC50.
A short description of assay [6]: Cytotoxicity against human HOP62 cells assessed as cell growth at 10^-5 M after 48 hrs by sulforhodamine B assay. The assay is classed as functional. The following applies: HOP-62, 48 h, read-out: Activity.
Assay [7] can be described thus: Cytotoxicity against human COLO205 cells assessed as cell growth at 10^-5 M after 48 hrs by sulforhodamine B assay. Format: functional. The following applies: COLO 205, 48 h, read-out: Activity.
The subject of assay [8] is U-251. Nature of the assay: Cytotoxicity against human U251 cells assessed as cell growth at 10^-5 M after 48 hrs by sulforhodamine B assay. The assay is classed as functional. The following applies: U-251, 48 h, read-out: Activity.

Active and inactive are the calls of the source. No cut-off for these calls is given here.

As for `O=C1Nc2ccccc2/C1=C/c1cn(CC(O)Cn2cc(/C=C3\C(=O)Nc4ccccc43)c3ccccc32)c2ccccc12` (stereo not given), the GI50 in assay [1] was 12 µM; in [2], 1.7 µM; in the assay on SK-MEL-2, 1.7 µM; with MDA-MB-468, 2.03 µM; with K562, 1.2 µM; in “cells”, 1.3 µM. This molecule gave a GI50 in the assay with U-251 [5] of 1.5 µM. In addition, the TGI was 54.5 µM in assay [1]; 3.6 µM in assay [2]; 3.4 µM in the assay on SK-MEL-2; 3.7 µM with MDA-MB-468; 3.5 µM in the assay with K562; 3.4 µM in “cells”. This molecule also registered a TGI in the assay with U-251 [5] of 2.9 µM. The CC50 in assay [1] is over 100 µM; with SK-MEL-2 (read-out: LC50 (the source's name)), 6.9 µM; with MDA-MB-468 it was 6.9 µM; in the assay on K562, over 100 µM; in “cells”, 9.04 µM; in the assay with U-251 [5], 5.6 µM. In assay [3], this molecule showed a Ka of 1.38 ×10⁵ /M. For the same molecule, in assay [4], the inhibition entry is “Active”.
Regarding `COc1cc(/C=C2\C(=O)Nc3ccccc32)cc(OC)c1O`, the GI50 worked out at 2.5 µM in assay [1]; 1.5 µM with MDA-MB-468; 2.1 µM in the assay on K562; 3.2 µM in “cells”; 2.4 µM with U-251 [5]. For the same molecule, the TGI in assay [1] was 7.5 µM; in the assay with MDA-MB-468 it was 7.7 µM; with K562 it was over 100 µM; in “cells” it was 13.2 µM; in the assay on U-251 [5], 14.1 µM. Besides, the CC50 in assay [1] is over 100 µM; in the assay with MDA-MB-468 it was 63.1 µM; with K562, over 100 µM; in the assay “cells”, 36.7 µM; in the assay on U-251 [5] it was 42.6 µM. For the same molecule, the growth at 10 µM in assay [6] is 64.3%; in assay [7], 112%; in the assay with U-251 [8], 47%.

Broadly, the GI50 is the concentration at which growth is held to half of that of the control. In general, TGI refers to the concentration giving total growth inhibition. A lower TGI goes with greater sensitivity of the cells.
